Measured values from patent publication US12220420B2, “Combination therapy for cancer treatment” (Galera Labs, LLC, priority 2016, dated 2025).

Experiments:
[1] = test system: human lung cancer cells (H292); assay: PeroxyOrange-1 (PO-1) oxidation as a measure of steady-state H2O2; format: cell-based
Experimental: The effects on H2O2 fluxes of a pentaaza macrocyclic ring complex (GC4419) provided in combination with inhibitors of H2O2 metabolism were tested in human lung cancer cells (H292). The H292 cells were treated with 20 μM GC4419 for 3 and 24 hours, and PeroxyOrange-1 (PO-1) oxidation was monitored as a measure of steady-state H2O2. […] Also, the combination of GC4419+BSO+AT for 3 hours (B-AT 4419 3) and 24 hours (B-AT 4419 24) further increased PO-1 oxidation to 3-fold greater than a control. The PO-1 oxidation was also monitored in dosing the cells three times with 100 μM hydrogen peroxide (H2O2).

[2] = test system: H1299 cancer cells; assay: Clonogenic assay of FIG. 4, normalized surviving fraction; format: cell-based, human; details: 20 μM GC4419, FIG. 4, control also about 1
Experimental: The effect of the pentaaza macrocyclic ring complex GC4419 in combination with inhibitors of hydrogen peroxide metabolism was tested on breast cancer cells (MB231) and non-small cell lung cancer cells (H1299) versus normal cells (HMEC normal mammary epithelial cells and HBEpC normal bronchial epithelial cells). The cells were plated and grown exponentially for 2 days. Either or both of 20 μM of the CG4419 compound and 100 μM BSO were added at time 0 of exposure, and 500 nM Auranofin (a thioredoxin reductase inhibitor) was added 48 hours after, for 15 minutes prior to a clonogenic assay.

[3] = test system: lung cancer cells (H1299); assay: 3-aminotriazole mediated inactivation of catalase (H2O2 flux); format: cell-based, human; details: 20 μM GC4419, H1299
Experimental: (§1) The effect of the pentaaza macrocyclic ring complex GC4419 in increasing levels of H2O2 in cancer cells was further tested by measuring the 3-aminotriazole mediated inactivation of catalase, using a method as described in Ahmad et al, J. Biol Chem, 280(6), 4254-4263 (2005). Briefly, head and neck cancer cells (Cal27), lung cancer cells (H1299) and breast cancer cells (MB231) were grown in 60 mm dishes, transduced with 50 MOI adCat to genetically increase catalase expression, and allowed 48 hours to recover so that the activity of catalase could increase to maximal levels. Afterwards, 50 mM AT was added for 5 minutes, which irreversibly binds to and inhibits the catalase intermediate formed in the presence of H2O2. 20 μM GC4419 was added, and cells were collected at 10 minute intervals for 60 minutes, and the inhibition of catalase was determined. A Lowry's protein assay determined the total protein concentration of individual samples. This method provides a stoichiometry of one catalase molecule being inhibited for each molecule of H2O2, thereby providing for precise measurements of changes in H2O2 flux. The results are shown in FIG. 3 (left hand side is Cal27, middle is H1299, and right hand side is MB231).

[4] = test system: breast cancer cells (MB231); assay: as above; format: cell-based, human; details: 20 μM GC4419, MB231
Experimental: as §1

[5] = test system: HN5 (HNSCC) tumors; assay: Animal model of squamous cell carcinoma of the head and neck with or without radiation; format: in vivo
Experimental: The effect of GC4419 was tested in vivo on animal models of squamous cell carcinoma of the head and neck (HNSCC). GC4419 was delivered as a 24 mg/kg daily dose delivered as an ip bolus on 5 consecutive days starting 1 hour prior to irradiation. Radiation was delivered as a single dose of 12 Gy using a 10 mm collimated beam aimed at the center of the tumor.

[6] = test system: Subcutaneous H1299 tumors; assay: Non-small cell lung cancer tumor xenograft model with or without radiation; format: in vivo
Experimental: The effect of the pentaaza macrocyclic ring complex GC4419 was tested in vivo on non-small cell lung cancer (NSCLC) in a tumor xenograft model. Subcutaneous H1299 tumors were subjected to biologically equivalent fractionation schemes of 18 Gy×1 dose or 2 Gy×16 doses (delivered on consecutive days), 1 hour following an initial injection of 24 mg/kg GC4419. GC4419 was also administered on the next 4 consecutive days after the first injection (given, in the case of the 2 Gy fraction dose experiment, 1 hour prior to each of those 4 days' radiation treatments).

[7] = Tuder et al. 2003; cited from earlier work
[8] = Anderson 2015; cited from earlier work
[9] = test system: Non-small cell lung cancer cells (H1299); assay: Clonogenic cell survival assay, auranofin alone and with ionizing radiation; format: cell-based, human
Experimental: The effects of an inhibitor of hydrogen peroxide metabolism, auranofin (a thioredoxin reductase inhibitor), on cancer cells was tested in a clonogenic cell survival assay to determine the effects of the compound alone and in combination with ionizing radiation. Non-small cell lung cancer cells (H1299) were exponentially grown and treated with auranofin (Au) either by itself for 15 minutes, or 15 minutes prior to the first of two ionizing radiation (IR) doses (2 Gy each) spaced 24 hours apart. After the last ionizing radiation dose, the cells were trypsinized, counted, replated at varying lower densities and incubated for 12 days. Plates were stained and counted for clonogenic survival assays. […] Furthermore, treatment with auranofin sensitized the cancer cells to radiation, thereby increasing the efficiency of the ionizing radiation in cell killing (Auranofin+IR) as compared to administration of ionizing radiation alone (IR 4 Gy).

[10] = test system: lung cancer cells (H292); assay: Total glutathione levels, DTNB recycling spectrophotometric assay; format: cell-based, human; details: 50 μM or 100 μM BSO, 24 hours
Experimental: (§2) The effect of buthionine sulfoximine (BSO) on reduced glutathione (GSH) levels in breast cancer cells (MB231) and lung cancer cells (H292) was examined. The cells were plated and grown to 75% confluency, then treated with either 50 μM BSO or 100 μM BSO for another 24 hours before harvesting for analysis for total glutathione levels using a DTNB recycling spectrophotometric assay.

[11] = test system: breast cancer cells (MB231); assay: as above; format: cell-based, human; details: 50 μM or 100 μM BSO, 24 hours
Experimental: as §2

[12] = test system: Breast cancer cells (MB231) and lung cancer cells (H1299); assay: Clonogenic killing in presence and absence of N-acetylcysteine (NAC); format: cell-based, human; details: 10 mM of NAC; 20 μM GC4419, 100 μM BSO, 500 nM Au
Experimental: Breast cancer cells (MB231) and lung cancer cells (H1299) were grown in culture to 75% confluence and treated with either 20 μM GC4419, or 100 μM BSO with 500 nM Au added after 48 hours, or all of GC4419, BSO and Au. The cancer cells were also treated with the same sets of compounds, but with the further addition of 10 mM of NAC. […] Thus, the results support that pentaaza macrocyclic ring complexes such as GC4419 combined with inhibitors of hydrogen peroxide metabolism can selectively kill cancer cells versus normal cells via oxidative stress correlated with increase H2O2 fluxes.

[13] = 24 mg/kg daily ip bolus, 5 consecutive days
[14] = 24 mg/kg GC4419, 5 consecutive days

## [Cl][Mn][Cl].c1cc2nc(c1)CN[C@H]1CCCC[C@@H]1NCCN[C@H]1CCCC[C@@H]1NC2 [GC4419]
[1]; 20 μM GC4419, 3 hours
  increase in PO-1 oxidation as compared to the control: 1.5 fold
[1]; 20 μM GC4419, 24 hours
  increase in PO-1 oxidation as compared to the control: 1.5 fold
[2]
  normalized surviving cell fraction (on a log scale): about 1
[3]
  steady-state levels of intracellular H2O2 flux, normalized to the control: significant increases
[4]
  steady-state levels of intracellular H2O2 flux, normalized to the control: significant increases
[5]; [13]
  tumor growth: significant growth delay
  tumor volumes as compared to a control: reduced tumor volumes
[5]; 24 mg/kg daily ×5 starting 1 hour prior to single dose of 12 Gy
  tumor growth, combination with radiation: even greater growth delays
[6]; 24 mg/kg GC4419 1 hour before 18 Gy×1 or 2 Gy×16
  response of NSCLC tumors to radiation: significantly enhancing radiation induced growth delay, and survival
[6]; [14]
  anti-cancer effect, cancer size as compared to the control: reduced cancer size
  survival as compared to the control: improved survival
[7]
  VEGFr inhibitor-induced pulmonary disease: attenuate VEGFr inhibitor-induced pulmonary disease
[8]
  oral mucositis: reduce oral mucositis

## CC(=O)OCC1OC([S-])C(OC(C)=O)C(OC(C)=O)C1OC(C)=O.CCP(CC)CC.[Au+] (stereo not shown) [auranofin, gold(+1)cation; 3,4,5-triacetyloxy-6-(acetyloxymethyl)oxane-2-thiolate; triethylphosphanium]
[9]; 250 nM of auranofin, FIG. 6
  normalized surviving cell fraction: over 0.5
[9]; 250 nM, 15 minutes
  cell killing as compared to a control: significant cell killing
[9]; 15 minutes prior to first of two IR doses (2 Gy each), versus IR 4 Gy alone
  response of cancer cells to ionizing radiation: significantly increases

## CCCCS(=N)(=O)CCC(N)C(=O)O (stereo not shown) [BSO, buthionine sulfoximine]
[10]
  glutathione levels: significantly decreases
[11]
  glutathione levels: significantly decreases

## CC(=O)N[C@@H](CS)C(=O)O [NAC, N-acetylcysteine]
[12]
  effect of NAC on cell killing caused by GC4419+Au and/or BSO: nearly completely inhibited the cell killing
